Assay results from US20260234147A1 (priority 2023, published 2026).
Where two headings read alike, the source gives them in different places.

Key:
[1] = target: T1, hMOR (Homo sapiens, UniProt P35372); assay: Radioligand binding assay (Eurofins Cerep), [3H]DAMGO displacement
[2] = target: hKOR (Homo sapiens, UniProt P41145); assay: Radioligand binding assay (Eurofins Cerep), [3H]U69,593 displacement
[3] = target: hDOR (Homo sapiens, UniProt P41143); assay: Radioligand binding assay (Eurofins Cerep), [3H]DADLE displacement
[4] = target: T2, α2A adrenergic receptor (Homo sapiens, UniProt P08913); assay: Radioligand binding assay (Eurofins Cerep), [3H]RX 821002 displacement
T2 construct: Eurofins Cerep (contract screening)
T2 sequence (P08913 1-465): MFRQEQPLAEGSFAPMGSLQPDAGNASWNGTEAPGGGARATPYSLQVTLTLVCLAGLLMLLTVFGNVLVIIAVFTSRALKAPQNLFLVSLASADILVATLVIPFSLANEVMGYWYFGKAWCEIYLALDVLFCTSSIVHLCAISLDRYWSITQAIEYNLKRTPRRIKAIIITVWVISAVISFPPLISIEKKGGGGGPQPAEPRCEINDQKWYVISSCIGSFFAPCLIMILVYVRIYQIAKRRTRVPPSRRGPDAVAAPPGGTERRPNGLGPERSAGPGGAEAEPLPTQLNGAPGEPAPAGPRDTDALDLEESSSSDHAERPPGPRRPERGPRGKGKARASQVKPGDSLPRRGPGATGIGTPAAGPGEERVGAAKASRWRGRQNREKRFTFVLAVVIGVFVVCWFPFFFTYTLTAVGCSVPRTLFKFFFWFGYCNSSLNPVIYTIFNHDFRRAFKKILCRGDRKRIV

[5] = Metabolic stability in rat liver microsomes; type: in vitro ADME; conditions: rat liver microsomes 1 mg/ml, substrate 1 μM, NADPH, 37° C.
Experimental: In vitro metabolic stability of each compound was determined using rat liver microsomes in triplicate. Verapamil was used as a positive control to check the activity of the microsomes. The incubation mixtures consisted of rat liver microsomes (1 mg microsomal protein/ml), substrate (1 μM), and reduced NADPH (1 mM) in a total volume of 0.4 ml potassium phosphate buffer (50 mM, pH 7.4). Reactions were initiated with the addition of NADPH and kept in an incubator shaker at 37° C. Aliquots of 25 μl were withdrawn at 0, 5, 10, 15, 30, and 60 min and mixed with 125 μl of acetonitrile with formic acid (0.1% v/v) containing phenacetin (50 ng/ml; internal standard) for the termination of the reaction. The samples were then vortex mixed and filtered through a […] 96-well membrane filtration plate under centrifugation at speed of 2000×g for 5 min at 4° C. The filtrates were subjected to UPLC-mass spectrometry (MS/MS) analysis.
The intrinsic clearance of the compounds was calculated using a half-life employing the ‘substrate depletion’ approach. The apparent half-life was calculated from the pseudo-first-order rate constants obtained by linear regression of log (concentration) and time plots. The in vitro intrinsic clearance of IFN was estimated using the formula: […]
Where k is the slope of the line obtained by plotting the natural logarithmic of the percentage of parent remaining versus time and V is the volume of incubation.
The in vitro intrinsic clearance was scaled to whole-organ (hepatic) in vivo intrinsic CL (CLint,H) using the scaling factors available in the literature using equation (Mahmood I. Application of allometric principles for the prediction of pharmacokinetics in human and veterinary drug development. Advanced drug delivery reviews, 2007, 59(11), 1177-1192)
MPPGL represents the microsomal protein per gram of Sprague Dawley rat liver (45 mg/g) and liver weight per kg body weight was 40 g/kg.

[6] = target: T1, hMOR; assay: Cyclic adenosine 3′,5′-monophosphate (cAMP) assay in hMOR-CHO cells; type: cell-based; conditions: N=1, control agonist DAMGO
[7] = target: T3, α2C adrenergic receptor (Homo sapiens, UniProt P18825); assay: Radioligand binding assay (Eurofins Cerep), [3H]RX 821002 displacement; conditions: Ki (nM ± SEM) a2C-AR, 3 independent experiments
T3 construct: Eurofins Cerep (contract screening)
T3 sequence (P18825 1-462): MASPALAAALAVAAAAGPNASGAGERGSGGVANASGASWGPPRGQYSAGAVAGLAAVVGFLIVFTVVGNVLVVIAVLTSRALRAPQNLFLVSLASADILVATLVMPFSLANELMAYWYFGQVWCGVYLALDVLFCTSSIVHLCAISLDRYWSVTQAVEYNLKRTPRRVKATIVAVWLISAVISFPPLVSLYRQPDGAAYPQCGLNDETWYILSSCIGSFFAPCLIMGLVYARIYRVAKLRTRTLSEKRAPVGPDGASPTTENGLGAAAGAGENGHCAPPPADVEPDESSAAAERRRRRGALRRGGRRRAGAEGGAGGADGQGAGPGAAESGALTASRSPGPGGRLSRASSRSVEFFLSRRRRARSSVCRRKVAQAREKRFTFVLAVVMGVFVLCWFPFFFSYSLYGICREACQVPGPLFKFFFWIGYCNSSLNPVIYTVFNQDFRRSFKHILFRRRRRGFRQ

[8] = target: T1, hMOR; assay: cell-based; design: expressed in transfected cells; conditions: for Emax: CHO

T1 sequence (P35372 whole entry): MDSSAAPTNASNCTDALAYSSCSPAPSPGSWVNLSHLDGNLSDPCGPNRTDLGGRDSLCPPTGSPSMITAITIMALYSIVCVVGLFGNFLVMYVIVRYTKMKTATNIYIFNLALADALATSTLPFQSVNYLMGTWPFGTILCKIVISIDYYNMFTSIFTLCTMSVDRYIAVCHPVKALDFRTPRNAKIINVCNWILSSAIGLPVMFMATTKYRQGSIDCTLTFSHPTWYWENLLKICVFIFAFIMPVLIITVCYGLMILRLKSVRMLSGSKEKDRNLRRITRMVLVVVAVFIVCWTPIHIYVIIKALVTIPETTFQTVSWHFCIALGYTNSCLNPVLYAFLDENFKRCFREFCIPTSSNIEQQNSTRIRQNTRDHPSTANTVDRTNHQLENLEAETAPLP
hDOR, sequence (P41143 whole entry): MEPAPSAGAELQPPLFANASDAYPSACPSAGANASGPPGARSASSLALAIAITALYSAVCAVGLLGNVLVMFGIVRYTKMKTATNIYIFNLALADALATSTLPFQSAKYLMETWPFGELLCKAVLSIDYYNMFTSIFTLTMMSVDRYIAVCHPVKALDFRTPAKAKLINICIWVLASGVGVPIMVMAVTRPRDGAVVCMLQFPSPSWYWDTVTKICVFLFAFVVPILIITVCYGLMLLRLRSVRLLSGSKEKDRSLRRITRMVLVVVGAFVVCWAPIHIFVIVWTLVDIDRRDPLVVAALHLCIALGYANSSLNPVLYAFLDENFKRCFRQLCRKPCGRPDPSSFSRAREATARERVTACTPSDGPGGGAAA
hKOR, sequence (P41145 whole entry): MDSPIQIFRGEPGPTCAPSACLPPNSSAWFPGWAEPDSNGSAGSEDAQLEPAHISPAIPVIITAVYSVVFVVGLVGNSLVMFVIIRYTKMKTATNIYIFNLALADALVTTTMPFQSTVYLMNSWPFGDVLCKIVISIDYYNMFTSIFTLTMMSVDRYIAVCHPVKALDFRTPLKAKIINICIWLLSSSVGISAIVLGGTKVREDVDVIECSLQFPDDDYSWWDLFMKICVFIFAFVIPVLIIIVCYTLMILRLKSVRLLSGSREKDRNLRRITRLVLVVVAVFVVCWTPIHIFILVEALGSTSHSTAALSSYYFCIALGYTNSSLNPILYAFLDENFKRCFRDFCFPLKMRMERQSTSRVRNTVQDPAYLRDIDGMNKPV

Work on `CC[C@@H]1CN2CCc3c([nH]c4cccc(OC)c34)[C@@H]2C[C@@H]1/C(=C\OC)C(=O)N(C)C1CCCC1` yielded a Ki ([1]; Table A4, data summary #2, read-out: MOR Ki ± SEM) of 68 ± 7 nM, a Ki ([1]; read-out: Ki at hMOR) of 67.8 nM and a Ki ([2]; Table A1, data summary #1, read-out: KOR Ki ± SEM) of 4600 ± 132 nM. For the same compound, the Ki ([2]; Table A4, data summary #2, read-out: KOR Ki ± SEM) was 4600 ± 132 nM, the Ki ([3]; Table A1, data summary #1, read-out: DOR Ki ± SEM) was 9750 ± 452 nM and the Ki ([3]; Table A4, data summary #2, read-out: DOR Ki ± SEM) was 6930 ± 1340 nM. For the same compound, the Ki ([4]; Table A4, data summary #2, read-out: Alpha2A Ki ± SEM) was 510 ± 82 nM, the “RLM stability” value [5] was <5 min and the “functional activity in cAMP assay” value [6] was “antagonists”. The “functional activity in cAMP assay” value ([6]; listed as SUSM 522) was “antagonist”.
With `COC(=O)CC1CCN(CCc2c[nH]c3ccccc23)CC1` [Compound 3-24] the “SR: Selectivity Ratio (KiMOR/Kiα2A)” value ([1]; Table 3-1) was 1.58, the Ki ([1]; Table 3-1, 3 independent experiments, read-out: Ki (nM ± SEM) MOR) was 2230 ± 42.6 nM and the “SR: Selectivity Ratio (KiMOR/Kiα2A)” value ([1]; Table 3-2) was 1.58. The Ki ([1]; Table 3-2, 3 independent experiments, read-out: Ki (nM ± SEM) MOR) was 2230 ± 42.6 nM, the “SR: Selectivity Ratio (KiMOR/Kiα2A)” value ([1]; Table 3-3) was 1.58 and the Ki ([1]; Table 3-3, 3 independent experiments, read-out: Ki (nM ± SEM) MOR) was 2230 ± 42.6 nM. For the same compound, the “SR: Selectivity Ratio (KiMOR/Kiα2A)” value ([1]; Table 3-4) was 1.58, the Ki ([1]; Table 3-4, 3 independent experiments, read-out: Ki (nM ± SEM) MOR) was 2230 ± 42.6 nM and the “SR: Selectivity Ratio (KiMOR/Kiα2A)” value ([1]; Table 3-5) was 1.58. The Ki ([1]; Table 3-5, 3 independent experiments, read-out: Ki (nM ± SEM) MOR) was 2230 ± 42.6 nM, the “SR: Selectivity Ratio (KiMOR/Kiα2A)” value ([1]; Table 3-6) was 1.58 and the Ki ([1]; Table 3-6, 3 independent experiments, read-out: Ki (nM ± SEM) MOR) was 2230 ± 42.6 nM. For the same compound, the Ki ([1]; Table 3-7, human MOR, read-out: MOR Ki (nM ± SEM)) was 2230 ± 43 nM, the Ki ([2]; Table 3-1, 3 independent experiments, read-out: Ki (nM ± SEM) KOR) was > 10000 nM and the Ki ([2]; Table 3-2, 3 independent experiments, read-out: Ki (nM ± SEM) KOR) was > 10000 nM. The Ki ([2]; Table 3-3, 3 independent experiments, read-out: Ki (nM ± SEM) KOR) was > 10000 nM, the Ki ([2]; Table 3-4, 3 independent experiments, read-out: Ki (nM ± SEM) KOR) was > 10000 nM and the Ki ([2]; Table 3-5, 3 independent experiments, read-out: Ki (nM ± SEM) KOR) was > 10000 nM. The Ki ([2]; Table 3-6, 3 independent experiments, read-out: Ki (nM ± SEM) KOR) was > 10000 nM, the Ki ([3]; Table 3-1, 3 independent experiments, read-out: Ki (nM ± SEM) DOR) was > 10000 nM and the Ki ([3]; Table 3-2, 3 independent experiments, read-out: Ki (nM ± SEM) DOR) was > 10000 nM. The Ki ([3]; Table 3-3, 3 independent experiments, read-out: Ki (nM ± SEM) DOR) was > 10000 nM, the Ki ([3]; Table 3-4, 3 independent experiments, read-out: Ki (nM ± SEM) DOR) was > 10000 nM and the Ki ([3]; Table 3-5, 3 independent experiments, read-out: Ki (nM ± SEM) DOR) was > 10000 nM. The Ki ([3]; Table 3-6, 3 independent experiments, read-out: Ki (nM ± SEM) DOR) was > 10000 nM, the Ki ([4]; Ki (nM ± SEM) a2A-AR, Table 3-1, 3 independent experiments) was 1410 ± 122 nM and the Ki ([4]; Ki (nM ± SEM) a2A-AR, Table 3-2, 3 independent experiments) was 1410 ± 122 nM. For the same compound, the Ki ([4]; Ki (nM ± SEM) a2A-AR, Table 3-3, 3 independent experiments) was 1410 ± 122 nM, the Ki ([4]; Ki (nM ± SEM) a2A-AR, Table 3-4, 3 independent experiments) was 1410 ± 122 nM and the Ki ([4]; Ki (nM ± SEM) a2A-AR, Table 3-6, 3 independent experiments) was 1410 ± 122 nM. The Ki ([4]; Ki (nM ± SEM) a2A-ar, Table 3-5, 3 independent experiments) was 1410 ± 122 nM, the Ki ([7]; Table 3-2) was > 10000 nM and the Ki ([7]; Table 3-3) was > 10000 nM. For the same compound, the Ki ([7]; Table 3-4) was > 10000 nM, the Ki ([7]; Table 3-5) was > 10000 nM and the Ki ([7]; Table 3-6) was > 10000 nM. The “functional character at MOR” value [8] was “low, but measurable, partial agonist activity”, the Emax ([8]; read-out: MOR Emax ± SEM (%)) was 23.8 ± 6.7% and the Emax ([8]; read-out: Emax at MOR (FIG. 1)) was 24%. For the same compound, the EC50 ([8]; read-out: MOR EC50 ± SEM) was 1220 nM.
